Publication PMC11372076, “A dual inhibitor of PIP5K1C and PIKfyve prevents SARS-CoV-2 entry into cells” (Experimental & Molecular Medicine, 2024)

Key:
[1] = system: Delta variant (B.1.617.2) spike-pseudotyped virus; assay type: cell-based, SARS-CoV-2
[2] = system: Omicron variant (BA.1) spike-pseudotyped virus; assay type: cell-based, SARS-CoV-2

In the case of c1ccc(-c2cc(Nc3nc(-c4ccncc4)nc4ccccc34)n[nH]2)cc1 [UNI418, N -(5-phenyl-1 H -pyrazol-3-yl)-2-(4-pyridinyl)-4-quinazolinamine], the pseudotyped virus entry [1] is reported as “markedly inhibited” and the pseudotyped virus entry [2] is reported as “markedly inhibited”.
